Data taken from the METLIN SMRT retention time set (Domingo-Almenara et al. 2019).

Test: gradient 5% acetonitrile 3 min, to 50% in 2 min, to 85% in 15 min, held 3 min, 100 µL/min
Details: column: Zorbax Extend-C18 2.1 x 50 mm; eluents: water / acetonitrile, 0.1% formic acid
Method in brief: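 Each retention time is based on an adduct peak selected computationally and verified by manual inspection. Measurements used HPLC–quadrupole time-of-flight mass spectrometry in positive and negative ionization mode on mixtures of ~100 pure standards. Chromatography ran on a Zorbax Extend-C18 column (2.1 × 50 mm, 1.8 μm) at 100 μL/min with water and acetonitrile, each containing 0.1% formic acid, and dead and dwell volumes of 40 μL and 900 μL.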

Row | Compound | RP-LC retention time
1 | COCc1nc2cccnc2n1C1CCN(C(=O)Nc2ccccc2Br)CC1 | 724 s
2 | COc1ccc(OC)c(CNC(=O)c2c(N3CCCC3=O)c3cc(OC)ccc3n2C)c1 | 849 s
3 | COCCc1nncn1C1CCN(C(=O)c2cc(F)ccc2F)CC1 | 618 s
4 | COc1cc2c(cc1OC)C(COc1cccc(C(F)(F)F)c1)NCC2 (stereo unspecified) | 586 s
5 | C=CCN(CC=C)C(=O)Cn1c(C)c(Cc2ccccc2)c(=O)n2nc(-c3ccccc3)nc12 | 1040 s
6 | Cc1cc(C)cc(S(=O)(=O)N2CCC(C(=O)NCCc3csc(-c4ccccc4)n3)CC2)c1 | 1020 s
7 | CC(C)c1ccc(CNC(=O)CN2CCc3ccccc3C2C(=O)N2CCCC2)cc1 (stereo unspecified) | 908 s
8 | COc1ccc2c(c1)C1(CCN(S(=O)(=O)c3ccc(OC)c(OC)c3)C1)C(=O)N2 (stereo unspecified) | 757 s
9 | O=C(NCc1cccnc1)C1c2ccccc2C(=O)N(C2CCCC2)C12CCCCC2 (stereo unspecified) | 677 s
10 | O=C1CCCc2cc(S(=O)(=O)N3CCC(C(=O)NCCc4ccccc4)CC3)ccc2N1 | 735 s
11 | O=C(CN1CCCCC1c1nc(-c2cccc(F)c2)no1)Nc1ccc(F)cc1 (stereo unspecified) | 1130 s
12 | Cc1noc(C2CN(C(=O)Nc3cccc(Cl)c3C)CC23CCOCC3)n1 (stereo unspecified) | 792 s
13 | O=C([C@@H]1C[C@H](Oc2ccccc2)CN1C(=O)C1CC=CC1)N1CCCC1 | 759 s
14 | CCCCOc1c(C(=O)c2c(F)cc(C)cc2F)cnc2[nH]ncc12 | 916 s
15 | Cc1ccc(NS(=O)(=O)c2cc3c(=O)n(C)ncn3c2)cc1C | 849 s
16 | Cc1nc(C(=O)N2CCCCCC2c2nnc(C)o2)co1 (stereo unspecified) | 649 s
17 | CC(C)n1c(CCNC(=O)c2ccc(F)cc2)nc2cccnc21 | 656 s
18 | COc1ccccc1N1CCN(c2cc(SCC(=O)Nc3ccc(Cl)cc3)ncn2)CC1 | 1080 s
19 | CCOc1ccc(S(=O)(=O)Nc2ccc(-c3cn4ccc(C)nc4n3)cc2)c(OCC)c1 | 691 s
20 | O=C(COc1ccccc1)N1CCN(C(=O)c2nnn3c2COC(c2ccccc2)C3)CC1 (stereo unspecified) | 850 s
21 | O=C(N1CCC(NS(=O)(=O)c2cccc(F)c2)CC1)N1C[C@H]2C[C@H](C1)[C@H]1CCCC(=O)N1C2 | 704 s
22 | O=C(Nc1ccccc1F)N1CCCC(Cn2c(C3CC3)nc3cccnc32)C1 (stereo unspecified) | 656 s

Row | Compound | RP-LC retention time
23 | CCc1noc(-c2cc(=O)n(CC(=O)NCc3ccc(SC)cc3)c3ccccc23)n1 | 928 s
24 | O=C(Cc1ccccc1)Nc1c(-c2ccccc2)nc2ccccn12 | 574 s
25 | O=C(CSc1ccc(-c2ccco2)nn1)Nc1ccc(F)cc1F | 788 s
26 | Cc1noc(C2CN(C(=O)c3ccc(C#N)cc3)CC23CCOCC3)n1 (stereo unspecified) | 642 s
27 | Cc1ccc(C(=O)NCc2nc(-c3ccc4c(c3)nnn4C)no2)cc1 | 731 s
28 | O=C(CN1C(=O)CN(C(=O)Nc2ccccc2)c2ccccc21)NCc1ccccn1 | 587 s
29 | Cc1ccc2nc(N3CCN(c4ccc(F)cc4)CC3)c(-c3noc(C)n3)cc2c1 | 732 s
30 | Cn1cc(CCNC(=O)Cc2ccccc2Cl)c2cccnc21 | 700 s
31 | Cc1ccc(NS(=O)(=O)c2cc3n(c2)CCN(C(C)C)C3=O)cc1 | 777 s
32 | O=C(c1ccsc1)N1CCC2(CC1)CC(N1CCOCC1)CCO2 (stereo unspecified) | 557 s
33 | O=C(NCc1ccc(-c2noc(CCc3ccccc3)n2)s1)C1CC1 | 915 s
34 | O=C1NCCCn2cc(S(=O)(=O)N3CCN(c4ccccc4)CC3)cc21 | 724 s
35 | CCCN1CCCCc2cc(C(=O)NCC(C)C)sc21 | 1100 s
36 | Cn1c(=O)c(N2CCC(NC(=O)Nc3ccccc3Cl)CC2)nc2cccnc21 | 904 s
37 | CN1CCC(c2c[nH]c3ccccc23)C1 (stereo unspecified) | 648 s
38 | COc1ccc(-c2nc3cc(C)ccn3c2NC(=O)CC(C)C)cc1 | 628 s
39 | Cc1csc(-c2cc(S(=O)(=O)NCCC3=CCCCC3)cn2CC(=O)N2CCCCC2)n1 | 1140 s
40 | O=C(c1ccoc1)N1CCCC(OCc2nc(-c3ccncc3)no2)C1 (stereo unspecified) | 668 s
41 | O=C(CCNc1c(-c2cccc(F)c2)nc2cnccn12)N1CCOCC1 | 630 s
42 | CC(C)NC(=O)CCCN1C(=O)c2ccccc2Sc2ncccc21 | 674 s
43 | COc1ccc(-c2nnc(-c3ccc(OC)c(S(=O)(=O)N4CCCC4)c3)o2)cc1OC | 844 s
44 | Cc1nc2cccnc2n1CCN1CCN(C(=O)Nc2ccc(F)c(Cl)c2)CC1 | 618 s

Row | Compound | RP-LC retention time
45 | CCN1C(=O)c2cccnc2Sc2cc(NC(=O)Cc3ccccc3Cl)ccc21 | 856 s
46 | CNC(=O)N1CCCC(c2cccc(C(=O)NCc3cccc(Br)c3)c2)C1 (stereo unspecified) | 819 s
47 | COCCCNC(=O)C1(C)Cn2nc(-c3ccccc3)cc2C(=O)N1Cc1ccc(OC)cc1 (stereo unspecified) | 865 s
48 | COc1cccc(CN2C[C@@H](CO)[C@H](c3nc(C4CC4)no3)C2)n1 | 618 s
49 | Cc1sc(-c2cc(C(F)(F)F)on2)cc1S(=O)(=O)NCc1ccc(F)cc1 | 1160 s
50 | Cc1cc(NC(=O)c2[nH]c(C)c(S(=O)(=O)N3CCCCC3)c2C)ccc1Br | 1110 s
51 | COc1cccc(CN(C)C2CCc3nn(CC4CC4)c(=O)n3CC2)n1 (stereo unspecified) | 587 s
52 | COc1cccc(N2CCN(S(=O)(=O)c3cc(-c4cc(C(F)(F)F)on4)cs3)CC2)c1 | 1200 s
53 | CC1(O)CCOC2(CCN(Cc3cn[nH]c3-c3ccc(F)cc3)CC2)C1 (stereo unspecified) | 714 s
54 | CC(C)c1ccc(NC(=O)C2(Cc3cccnc3)CCCCC(=O)N2)cc1 (stereo unspecified) | 669 s
55 | Cc1cnc(-c2cc(N3CCN(C(=O)CCS(C)(=O)=O)CC3)ncc2Cl)c(C)c1 | 728 s
56 | CCCN1C(=O)c2ccccc2Sc2cc(-c3noc(CNC(C)=O)n3)ccc21 | 775 s
57 | COCCn1c(C)cc(O)c(C(c2ccc(SC)cc2)N2CCC(C)CC2)c1=O (stereo unspecified) | 1050 s
58 | Cn1cnc(S(=O)(=O)N2CCC(CCOc3ccccc3F)C2)c1 (stereo unspecified) | 828 s
59 | COc1ccc(-c2c(C)noc2NC(C)=O)cc1S(=O)(=O)Nc1cccc(C(F)(F)F)c1 | 821 s
60 | COC(=O)CSc1ccc(NC(C)=O)nn1 | 577 s
61 | Fc1ccc(OCc2nnc3sc(-c4ccccc4F)nn23)cc1 | 940 s
62 | O=C(CN1C(=O)COc2ccc(C(=O)N3CCc4ccccc43)cc21)N1CCCC1 | 760 s
63 | O=C(Nc1cccc(Cl)c1F)C1CC(=O)N(c2ccc3c(c2)CCN3C(=O)C2CC2)C1 (stereo unspecified) | 831 s
64 | COC[C@@H]1CN(S(=O)(=O)c2cccc(C)c2)C[C@H]1c1ccccn1 | 651 s
65 | O=c1c2cc3c(cc2nc(SCc2nc(-c4cccc(F)c4)no2)n1CC1CCCO1)OCO3 (stereo unspecified) | 1110 s
66 | Cc1noc(-c2ccc(NC(=O)c3cnn(-c4ccccc4)n3)cc2)n1 | 980 s
